“Also recorded” adds a separate entry of the source.
What was measured:
Type in all cases: in vivo
[1] = Roundtable assessment of mouthfeel (scale 0 to 2)
Protocol: (§1) For other sweetness attributes, the solutions were tested by a panel of at least four individuals that are highly-trained in tasting steviol glycoside solutions. The highly-trained panelists used a roundtable methodology to assess each sweetness attribute. To test each solution, the highly-trained panelists dispensed approximately 2 mL of each solution into their own mouths by transfer pipet, dispersed the solution by moving their tongues, and recorded a value for the particular sweetness attribute being tested. Between tasting solutions, the panelists were able to cleanse their palates with water. For each sweetness attribute, the panelist agreed on a descriptive scale with relative intensities assigned for each sweetness attribute and then recorded the values for each sweetness attribute against this. For example, this roundtable assessment of sweetness linger assigned a scale of 0 to 6 with a score of 0 indicating no sweetness linger and a score of 6 indicating extreme sweetness linger. Roundtable assessment of sweetness linger assigned a scale of 0 to 6 with a score of 0 indicating no sweetness linger and a score of 6 indicating extreme sweetness linger (0=none, 1=trace, 2=slight, 3=moderate, 4=definite, 5=strong, 6=extreme). Roundtable assessment of rounded assigned a scale of 0 to 3 with a score of 0 indicating spikey and a score of 3 indicating desirable rounded (0=none, 1=mostly spikey, some rounded, 2=mostly rounded, some spikey, 3=rounded). Roundtable assessment of mouthfeel assigned a scale of 0 to 2 with a score of 0 indicating water and a score of 2 indicating syrupy (0=water, 1=sucrosey, 2=syrupy). Roundtable assessment of bitterness assigned a scale of 0 to 6 with a score of 0 indicating no bitterness and a score of 6 indicating extreme sweetness linger (0=none, 1=trace, 2=slight, 3=moderate, 4=definite, 5=strong, 6=extreme). Roundtable assessment of off tastes assigned a scale of 0 to 6 with a score of 0 indicating no bitterness and a score of 6 indicating extreme off tastes (0=none, 1=trace, 2=slight, 3=moderate, 4=definite, 5=strong, 6=extreme).
A series of assays were carried out to characterize a sweetness quality of mouthfeel (0=water, 1=sucrosey, 2=syrupy) of steviol glycoside compositions with sensory modifier compound using the roundtable methodology described in Example 1. […] Solutions of steviol glycosides and sensory modifier compound were prepared at increasing ratios of sensory modifier to steviol glycoside by weight. The steviol glycosides were RebA (4 glycoside groups), RebD (5 glycoside groups), RebM (6 glycoside groups), and OPS1-5(7 glycoside groups) and the sensory modifier compound was monocaffeoylquinic and dicaffeoylquinic acids prepared from yerba mate. The concentration of steviol glycosides was 700 ppm in each solution. […]

[2] = Roundtable assessment of botanical notes (scale 0 to 5); set-up: key: 0 = none; 1 = trace/faint; 2 = slight; 3 = moderate; 4 = definite; 5 = strong; 6 = extreme
Protocol: as §1
Roundtable assessment of botanical notes assigned a scale of 0 to 5 with a score of 0 indicating no botanical notes and a score of 5 indicating strong (0=none, 1=trace, 2=slight, 3=moderate, 4=definite, 5=strong).
A series of assays were carried out to characterize botanical notes of sensory modifier compound (0=none, 1=trace/faint, 2=slight, 3=moderate, 4=definite, 5=strong) in steviol glycoside compositions using the roundtable methodology described in Example 1. […] Solutions of steviol glycosides and sensory modifier compound were prepared at increasing ratios of sensory modifier to steviol glycoside by weight. […] The concentration of steviol glycosides was 700 ppm in each solution. The solutions were tested for botanical notes.

[3] = Roundtable assessment of off taste (scale 0 to 6); set-up: key to Off taste / off taste score: 0 = none; 1 = trace/faint; 2 = slight; 3 = moderate; 4 = definite; 5 = strong; 6 = extreme
Protocol: as §1
A series of assays were carried out to characterize off taste (0=none, 1=trace/faint, 2=slight, 3=moderate, 4=definite, 5=strong, 6=extreme) of steviol glycoside compositions with sensory modifier compound using the roundtable methodology described in Example 1. […] Solutions of steviol glycosides and sensory modifier compound were prepared at increasing ratios of sensory modifier to steviol glycoside by weight. The steviol glycosides were RebA (4 glycoside groups), RebD (5 glycoside groups), RebM (6 glycoside groups), and OPS1-5(7 glycoside groups) and the sensory modifier compound was monocaffeoylquinic and dicaffeoylquinic acids prepared from yerba mate. The concentration of steviol glycosides was 700 ppm in each solution. The solutions were tested for off taste. Off taste included astringency, metallic, powdery, numbing, and vapory attributes.

[4] = Roundtable assessment of spikey/rounded sweetness quality (scale 0 to 3); set-up: key: 0=none; 1=mostly spikey, some rounded; 2=mostly rounded, some spikey; 3=rounded
Protocol: as §1
A series of assays were carried out to characterize a sweetness quality of a not preferred spikey quality (a zero value) to a more desirable rounded quality (a 3 value) of steviol glycoside compositions with sensory modifier compound using the roundtable methodology described in Example 1. Rounded quality has the sensory experience of being more like sucrose. […] Solutions of steviol glycosides and sensory modifier compound were prepared at increasing ratios of sensory modifier to steviol glycoside by weight. The steviol glycosides were RebA (4 glycoside groups), RebD (5 glycoside groups), RebM (6 glycoside groups), and OPS1-5(7 glycoside groups) and the sensory modifier compound was monocaffeoylquinic and dicaffeoylquinic acids prepared from yerba mate. […] The solutions were tested for spikey/rounded.

[5] = Roundtable assessment of off taste (scale 0 to 6); set-up: key: 0 = none; 1 = trace/faint; 2 = slight; 3 = moderate; 4 = definite; 5 = strong; 6 = extreme
[6] = steviol glycoside 700 ppm + yerba mate mono/dicaffeoylquinic acids 630 ppm
[7] = steviol glycoside 700 ppm + yerba mate mono/dicaffeoylquinic acids 946 ppm
[8] = steviol glycoside 700 ppm + yerba mate mono/dicaffeoylquinic acids […]
[9] = steviol glycoside 700 ppm, sensory modifier 0 ppm
[10] = steviol glycoside 700 ppm + yerba mate mono/dicaffeoylquinic acids 810 ppm
[11] = steviol glycoside 700 ppm + yerba mate mono/dicaffeoylquinic acids 270 ppm
[12] = steviol glycoside 700 ppm + yerba mate mono/dicaffeoylquinic acids 540 ppm
[13] = RebM 700 ppm + cichoric acid (tartaric backbone) 514 ppm
[14] = RebM 700 ppm + cichoric acid (tartaric backbone) 772 ppm
[15] = RebM 700 ppm + cichoric acid (tartaric backbone) […]
[16] = RebM 700 ppm + rosmarinic acid 195 ppm
[17] = RebM 700 ppm + rosmarinic acid 391 ppm
[18] = RebM 700 ppm + rosmarinic acid 586 ppm
[19] = steviol glycoside 700 ppm + yerba mate mono/dicaffeoylquinic acids 236 ppm
[20] = steviol glycoside 700 ppm + yerba mate mono/dicaffeoylquinic acids 300 ppm
[21] = steviol glycoside 700 ppm + yerba mate mono/dicaffeoylquinic acids 400 ppm
[22] = steviol glycoside 700 ppm + yerba mate mono/dicaffeoylquinic acids 472 ppm
[23] = steviol glycoside 700 ppm + yerba mate mono/dicaffeoylquinic acids 500 ppm
[24] = steviol glycoside 700 ppm + yerba mate mono/dicaffeoylquinic acids 600 ppm
[25] = steviol glycoside 700 ppm + yerba mate mono/dicaffeoylquinic acids 700 ppm
[26] = steviol glycoside 700 ppm + yerba mate mono/dicaffeoylquinic acids 708 ppm
[27] = steviol glycoside 700 ppm + yerba mate mono/dicaffeoylquinic acids 800 ppm

C=C1C[C@@]23CC[C@H]4[C@@](C)(CCC[C@@]4(C)C(=O)O[C@@H]4O[C@H](CO)[C@@H](O)[C@H](O)[C@H]4O)[C@@H]2CC[C@]1(O[C@@H]1O[C@H](CO)[C@@H](O)[C@H](O[C@@H]2O[C@H](CO)[C@@H](O)[C@H](O)[C@H]2O)[C@H]1O[C@@H]1O[C@H](CO)[C@@H](O)[C@H](O)[C@H]1O)C3 [RebA, Rebaudioside A]
Mouthfeel [1, 6]: Not noted by panel
Mouthfeel [1, 7]: Not noted by panel
Mouthfeel [1, 8]: Not noted by panel
Botanical notes [2, 6]: 1
Botanical notes [2, 7]: 3
Botanical notes [2, 8]: Not observed
Botanical notes [2, 9]: Not observed
off taste score ([3]; RebA 700 ppm, higher concentrations of sensory modifier): 2
Off taste [3, 6]: 2
Off taste [3, 7]: 2
Off taste [3, 8]: 2
Off taste [3, 9]: 6
Spikey/rounded (spikey = 0) (rounded = 3) [4, 6]: Not observed
Spikey/rounded (spikey = 0) (rounded = 3) [4, 7]: Not observed
Spikey/rounded (spikey = 0) (rounded = 3) [4, 8]: Not observed
Spikey/rounded (spikey = 0) (rounded = 3) [4, 9]: 0

C=C1C[C@@]23CC[C@H]4[C@@](C)(CCC[C@@]4(C)C(=O)O[C@@H]4O[C@H](CO)[C@@H](O)[C@H](O)[C@H]4O[C@@H]4O[C@H](CO)[C@@H](O)[C@H](O)[C@H]4O)[C@@H]2CC[C@]1(O[C@@H]1O[C@H](CO)[C@@H](O)[C@H](O[C@@H]2O[C@H](CO)[C@@H](O)[C@H](O)[C@H]2O)[C@H]1O[C@@H]1O[C@H](CO)[C@@H](O)[C@H](O)[C@H]1O)C3 [RebD, Rebaudioside D]
Mouthfeel [1, 10]: Not noted by panel
Botanical notes ([2]; Reb D 700 ppm, 0 ppm to about 500 ppm sensory modifier): no perceptible botanical notes
Botanical notes ([2]; Reb D 700 ppm, about 800 ppm sensory modifier): slight
Botanical notes [2, 11]: 0
Botanical notes [2, 12]: 0
Botanical notes [2, 10]: 2
Botanical notes [2, 9]: Not observed
Off taste [3, 11]: 2
Off taste [3, 9]: 2
Spikey/rounded (spikey = 0) (rounded = 3) [4, 11]: 1
Spikey/rounded (spikey = 0) (rounded = 3) [4, 12]: 3
Spikey/rounded (spikey = 0) (rounded = 3) [4, 10]: 3
Spikey/rounded (spikey = 0) (rounded = 3) [4, 9]: 2

C=C1C[C@@]23CC[C@H]4[C@@](C)(CCC[C@@]4(C)C(=O)O[C@@H]4O[C@H](CO)[C@@H](O)[C@H](O[C@@H]5O[C@H](CO)[C@@H](O)[C@H](O)[C@H]5O)[C@H]4O[C@@H]4O[C@H](CO)[C@@H](O)[C@H](O)[C@H]4O)[C@@H]2CC[C@]1(O[C@@H]1O[C@H](CO)[C@@H](O)[C@H](O[C@@H]2O[C@H](CO)[C@@H](O)[C@H](O)[C@H]2O)[C@H]1O[C@@H]1O[C@H](CO)[C@@H](O)[C@H](O)[C@H]1O)C3 [RebM, Rebaudioside M]
Botanical notes [2, 13]: 4
Botanical notes [2, 14]: 5
Botanical notes [2, 15]: 3
Botanical notes [2, 16]: 2
Botanical notes [2, 17]: 3
Botanical notes [2, 18]: 2
Botanical notes ([2]; RebM 700 ppm, quinic backbone modifier between 0 ppm and about 400 ppm): imperceptible
Botanical notes [2, 19]: Not Observed
Botanical notes [2, 20]: 0
Botanical notes [2, 21]: 0
Botanical notes [2, 22]: 1
Botanical notes [2, 23]: 0
Botanical notes [2, 24]: 2
Botanical notes [2, 25]: 2
Botanical notes [2, 26]: 2
Botanical notes [2, 27]: 2
Botanical notes [2, 9]: 0
Off taste [3, 15]: 0
Off taste [3, 16]: 0
Off taste [3, 18]: 0
off taste ([3]; RebM 700 ppm, about 200 ppm and above of sensory modifier): not perceptible; also recorded: between slight and none
off taste ([3]; quinic, tartaric or 3-(3,4-dihydroxyphenyl)lactic acid backbone modifier above 200 ppm): none
Off taste [3, 19]: 0
Off taste [3, 20]: 0
Off taste [3, 21]: 2
Off taste [3, 22]: 0
Off taste [3, 23]: 0
Off taste [3, 24]: 2
Off taste [3, 25]: 0
Off taste [3, 26]: 0
Off taste [3, 27]: 2
Off taste [3, 9]: 5
Off taste [5, 13]: 0
Off taste [5, 14]: 0
Off taste [5, 17]: 2
Spikey/rounded (spikey = 0) (rounded = 3) ([4]; RebM 100 ppm + yerba mate mono/dicaffeoylquinic acids 100 ppm (1:1)): 0
Spikey/rounded (spikey = 0) (rounded = 3) ([4]; RebM 200 ppm + yerba mate mono/dicaffeoylquinic acids 200 ppm (1:1)): 0
Spikey/rounded (spikey = 0) (rounded = 3) ([4]; RebM 300 ppm + yerba mate mono/dicaffeoylquinic acids 300 ppm (1:1)): 1
Spikey/rounded (spikey = 0) (rounded = 3) ([4]; RebM 400 ppm + yerba mate mono/dicaffeoylquinic acids 400 ppm (1:1)): 1
Spikey/rounded (spikey = 0) (rounded = 3) ([4]; RebM 500 ppm + yerba mate mono/dicaffeoylquinic acids 500 ppm (1:1)): 1
Spikey/rounded (spikey = 0) (rounded = 3) ([4]; RebM 600 ppm + yerba mate mono/dicaffeoylquinic acids 600 ppm (1:1)): 1
Spikey/rounded (spikey = 0) (rounded = 3) [4, 16]: 0
Spikey/rounded (spikey = 0) (rounded = 3) [4, 17]: 2
Spikey/rounded (spikey = 0) (rounded = 3) [4, 18]: 3
Spikey/rounded (spikey = 0) (rounded = 3) ([4]; RebM 700 ppm + yerba mate mono/dicaffeoylquinic acids 700 ppm (1:1)): 2
rounded quality ([4]; RebM 700 ppm, above 200 ppm sensory modifier): 2
Spikey/rounded (spikey = 0) (rounded = 3) ([4]; RebM 800 ppm + yerba mate mono/dicaffeoylquinic acids 800 ppm (1:1)): 2
Spikey/rounded (spikey = 0) (rounded = 3) ([4]; RebM 900 ppm + yerba mate mono/dicaffeoylquinic acids 900 ppm (1:1)): 2
Spikey/rounded (spikey = 0) (rounded = 3) ([4]; RebM 1000 ppm + yerba mate mono/dicaffeoylquinic acids 1000 ppm (1:1)): 2
Spikey/rounded (spikey = 0) (rounded = 3) ([4]; RebM 1100 ppm + yerba mate mono/dicaffeoylquinic acids 1100 ppm (1:1)): 2
Spikey/rounded (spikey = 0) (rounded = 3) ([4]; RebM 1200 ppm + yerba mate mono/dicaffeoylquinic acids 1200 ppm (1:1)): 2
Spikey/rounded (spikey = 0) (rounded = 3) ([4]; RebM 1300 ppm + yerba mate mono/dicaffeoylquinic acids 1300 ppm (1:1)): 2
Spikey/rounded (spikey = 0) (rounded = 3) ([4]; RebM 1400 ppm + yerba mate mono/dicaffeoylquinic acids 1400 ppm (1:1)): 2
Spikey/rounded (spikey = 0) (rounded = 3) ([4]; RebM 1500 ppm + yerba mate mono/dicaffeoylquinic acids 1500 ppm (1:1)): 2
Spikey/rounded (spikey = 0) (rounded = 3) ([4]; RebM 1600 ppm + yerba mate mono/dicaffeoylquinic acids 1600 ppm (1:1)): 2
rounded quality ([4]; RebM solution with 300 ppm sensory modifier): 3
Spikey/rounded (spikey = 0) (rounded = 3) [4, 19]: 2
Spikey/rounded (spikey = 0) (rounded = 3) [4, 20]: 2
Spikey/rounded (spikey = 0) (rounded = 3) [4, 21]: 3
Spikey/rounded (spikey = 0) (rounded = 3) [4, 22]: 3
Spikey/rounded (spikey = 0) (rounded = 3) [4, 23]: 3
Spikey/rounded (spikey = 0) (rounded = 3) [4, 24]: 2
Spikey/rounded (spikey = 0) (rounded = 3) [4, 25]: 3
Spikey/rounded (spikey = 0) (rounded = 3) [4, 26]: 3
Spikey/rounded (spikey = 0) (rounded = 3) [4, 27]: 3
Spikey/rounded (spikey = 0) (rounded = 3) [4, 9]: 0

— patent publication US20190223483A1, “SENSORY MODIFIER COMPOUNDS” (CARGILL, INCORPORATED, priority 2017, published 2019)
